In paper PMC11324527, “Cryo-EM architecture of a near-native stretch-sensitive membrane microdomain” (Nature, 2024):

Assays:
[1] = biological target: T1, Pil1 (recombinant, reconstituted tubules) (Saccharomyces cerevisiae, UniProt P53252); assay: cryo-EM helical reconstruction of reconstituted tubules; format: binding
T1 construct: PIL1 in pCoofy6, 6xHis-Sumo3 tag cleaved by SenP2, E. coli BL21(DE3)pLysS; homodimer in helical lattice on lipid tubules; model stops before residue 275
T1 sequence (P53252 1-339): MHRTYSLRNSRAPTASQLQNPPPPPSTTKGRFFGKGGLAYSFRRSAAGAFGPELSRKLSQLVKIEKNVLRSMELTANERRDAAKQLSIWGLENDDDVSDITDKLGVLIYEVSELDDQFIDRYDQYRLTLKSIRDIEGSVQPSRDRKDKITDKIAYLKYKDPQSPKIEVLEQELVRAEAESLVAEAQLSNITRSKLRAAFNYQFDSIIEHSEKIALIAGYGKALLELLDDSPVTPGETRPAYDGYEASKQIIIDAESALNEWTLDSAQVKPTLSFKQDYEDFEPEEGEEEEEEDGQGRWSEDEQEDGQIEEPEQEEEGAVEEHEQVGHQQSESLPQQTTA

[2] = biological target: Pil1–mCherry (Saccharomyces cerevisiae, UniProt P53252); conditions: labelled compound; 1% PI(4,5)P2; PI(4,5)P2-dependent; pH 7.4, 150 mM KoAc, 2 mM MgAc
[3] = biological target: the molecule itself; assay: cryo-EM structure; native-source eisosome tubules isolated from S. cerevisiae with bound plasma membrane bilayer; helical reconstruction of nine tubule types, symmetry expansion and density subtraction; dimers in a helical lattice
[4] = biological target: the molecule itself; assay: cryo-EM structure; 15-20 uM recombinant Pil1 with about 2 mg/ml LUVs of known lipid mixtures, 30 °C for one hour, 20 mM HEPES pH 7.4, 150 mM KoAc, 2 mM MgAc; helical reconstruction; dimers in a helical lattice

CCCCCCCC/C=C\CCCCCCCC(=O)OC[C@H](COP(=O)(O)OC[C@H](N)C(=O)O)OC(=O)CCCCCCC/C=C\CCCCCCCC [DOPS]
cryo-EM helical reconstruction of reconstituted tubules ([1]; +PI(4,5)P2/+sterol (15% cholesterol) mixture, site R43, K66, R70): This density accommodates a phosphatidylserine (PS) lipid (DOPS is present in our lipid mixtures)

CC1=CC(C)=[N+]2C1=C(CC[C@@H](C)[C@H]1CC[C@H]3[C@@H]4CC=C5C[C@@H](O)CC[C@]5(C)[C@H]4CC[C@]13C)c1c(C)cc(C)n1[B-]2(F)F [TF-cholesterol]
mobile fraction [2]: immobilized fraction of cholesterol interacts strongly with Pil1 and/or other lipids bound to the protein

CC(C)CCC[C@@H](C)[C@H]1CC[C@H]2[C@@H]3CC=C4C[C@@H](O)CC[C@]4(C)[C@H]3CC[C@]12C [cholesterol]
cryo-EM helical reconstruction of reconstituted tubules ([1]; +PI(4,5)P2/+sterol (15% cholesterol), void pattern below amphipathic helix, sterol not modelled): this pattern results from the stable association of sterol molecules with the AH

B1: Pil1 (native-source eisosome) (natural protein, S. cerevisiae (endogenous in yeast), UniProt P53252 1-339, looked up)
chain: MHRTYSLRNSRAPTASQLQNPPPPPSTTKGRFFGKGGLAYSFRRSAAGAFGPELSRKLSQLVKIEKNVLRSMELTANERRDAAKQLSIWGLENDDDVSDITDKLGVLIYEVSELDDQFIDRYDQYRLTLKSIRDIEGSVQPSRDRKDKITDKIAYLKYKDPQSPKIEVLEQELVRAEAESLVAEAQLSNITRSKLRAAFNYQFDSIIEHSEKIALIAGYGKALLELLDDSPVTPGETRPAYDGYEASKQIIIDAESALNEWTLDSAQVKPTLSFKQDYEDFEPEEGEEEEEEDGQGRWSEDEQEDGQIEEPEQEEEGAVEEHEQVGHQQSESLPQQTTA
notes: Pil1, BAR-domain eisosome protein of S. cerevisiae; model built up to residue 274 (C-terminal region from residue 275 removed, no density); Stands in the tubules as dimers in a helical lattice; also called Pil1/Lsp1; PIL1_YEAST; source: endogenous, untagged, S. cerevisiae
stoichiometry N [3]: 2

B2: Recombinant Pil1 (natural protein, S. cerevisiae, UniProt P53252 1-339, looked up)
chain: MHRTYSLRNSRAPTASQLQNPPPPPSTTKGRFFGKGGLAYSFRRSAAGAFGPELSRKLSQLVKIEKNVLRSMELTANERRDAAKQLSIWGLENDDDVSDITDKLGVLIYEVSELDDQFIDRYDQYRLTLKSIRDIEGSVQPSRDRKDKITDKIAYLKYKDPQSPKIEVLEQELVRAEAESLVAEAQLSNITRSKLRAAFNYQFDSIIEHSEKIALIAGYGKALLELLDDSPVTPGETRPAYDGYEASKQIIIDAESALNEWTLDSAQVKPTLSFKQDYEDFEPEEGEEEEEEDGQGRWSEDEQEDGQIEEPEQEEEGAVEEHEQVGHQQSESLPQQTTA
notes: Pil1 of S. cerevisiae, PIL1 cloned into pCoofy6 with primers from the start codon to the stop codon; Vector pCoofy6 (Addgene plasmid 43990) gives 6xHis-Sumo3; the Sumo3 tag was cleaved off with SenP2; It forms dimers in a helical lattice on liposomes; also called purified Pil1; reconstituted Pil1; source: E. coli BL21(DE3)pLysS, purified (HisTrap, HiTrap Q, SenP2 cleavage, Superdex 200); not …
stoichiometry N [4]: 2
